Experimental findings from paper PMC10897926 (Journal of Natural Products, 2024) are described below.

Usually CC50 stands for the concentration that lowers cell viability or growth by half.

Data set [1] has as its system primary human hepatocytes.
The test system of data set [2] is P. vivax liver schizonts. The data set can be described thus: microbe, parasite or virus in culture. It is filed as cell-based, Plasmodium vivax.
Data set [3] can be described thus: in vitro. The following applies: human.
The subject of data set [4] is P. vivax hypnozoites. The data set can be described thus: microbe, parasite or virus in culture. Format: cell-based, Plasmodium vivax.
The test system of data set [5] is P. falciparum (strain W2) asexual blood stage parasites. Put plainly: microbe, parasite or virus in culture. Format: cell-based, Plasmodium falciparum.
Data set [6] has as its system HepG2 cells.
A short description of data set [7]: in vitro. The following applies: human. This is another data set of the same source.
Setting [8] is: Plasmodium vivax, Hepatocyte, 288 h, read-out: P. vivax schizont EC50.
The mark [9] stands for this setting: Plasmodium vivax, read-out: P. vivax schizont pEC50 (converted).
The mark [10] stands for this setting: Plasmodium vivax, Hepatocyte, 288 h, read-out: P. vivax hypnozoite EC50.
The mark [11] stands for this setting: Plasmodium vivax, read-out: P. vivax hypnozoite pEC50 (converted).

Read-outs that look alike come from different tables or passages of the source.

As to `CO[C@@H]1C[C@@H](C[C@H]2CC[C@H](C)[C@H]([C@@H](C)C(=O)O)O2)O[C@]2(O[C@](C)([C@H]3CC[C@@](C)([C@@H]4O[C@@H]([C@H]5O[C@@](O)(CO)[C@H](C)C[C@@H]5C)C[C@@H]4C)O3)C[C@H]2C)[C@@H]1C` [nigericin], the “PHH Tox pCC50” value in data set [1] (human) is listed as >200 (6.70 ± 0.00). Further, the EC50 in data set [2] (setting [8]) is 0.00513 µM; in data set [2] (setting [9]), 0.00513 µM; in data set [4] (setting [10]), 0.0123 µM; in data set [4] (setting [11]) it was 0.0123 µM. In data set [3] (PHH Tox CC50), this compound gave a CC50 greater than 0.2 µM.
For `C[C@H]1[C@@H](O)O[C@@H]2O[C@@]3(C)CC[C@H]4[C@H](C)CC[C@@H]1[C@@]24OO3` [dihydroartemisinin], the EC50 in data set [5] (Plasmodium falciparum, W2, 72 h, read-out: P. falciparum ABS (W2) EC50) is 0.00144 µM; in data set [5] (Plasmodium falciparum, W2, 72 h, read-out: P. falciparum ABS (W2) pEC50 (converted)), 0.00145 µM.
`CC(=O)OC[C@]12CCC(C)=C[C@H]1O[C@@H]1[C@H](O)[C@@H](OC(C)=O)[C@@]2(C)[C@]12CO2` [anguidine, diacetoxyscirpenol]: the “HepG2 Tox pCC50” value in data set [6] is on record as 27.5 (7.56 ± 0.08). In addition, the “cytotoxicity (in words)” value in data set [6] is given as “cytotoxic”. In addition, the half-maximal cytotoxic concentration (CC50) in data set [6] (read-out: HepG2 Tox CC50) came out at 0.0275 µM; in data set [1] (read-out: PHH Tox CC50), 0.38 µM. The results for the EC50 in data set [5] (read-out: P. falciparum ABS (W2) EC50), in data set [2] (read-out: P. vivax schizont EC50) and in data set [4] (read-out: P. vivax hypnozoite EC50) were 0.00616 µM, 0.0135 µM and 0.0363 µM, respectively. In addition, in data set [1], the “PHH Tox pCC50” value is listed as 380 (6.42 ± 0.31). The “P. vivax hypnozoite pEC50” value in data set [4] was 36.3 (7.44 ± 0.75).
`COc1ccc(C[C@H](N)C(=O)N[C@H]2[C@@H](O)[C@H](n3cnc4c(N(C)C)ncnc43)O[C@@H]2CO)cc1` [puromycin]: the CC50 in data set [7] (HepG2 Tox CC50) was 0.398 µM; in data set [7] (HepG2 Tox pCC50) it was 0.398 µM; in data set [3] (PHH Tox CC50), 1.74 µM; in data set [3] (PHH Tox pCC50), 1.74 µM. Further, the EC50 in data set [2] (setting [8]) was 2.29 µM; in data set [2] (setting [9]) it was 2.29 µM; in data set [4] (setting [10]) it was 0.776 µM; in data set [4] (setting [11]), 0.776 µM.
